Experiment [1] relates to PCSK9/LDLR (Homo sapiens), Q8NBP7+P01130 [D374Y]. Kind of experiment: Inhibition of C-terminal His tagged purified recombinant PCSK9 D374Y mutant (unknown origin) and LDLR protein-protein interaction expressed in human HepG2 cells assessed as LDLR protein expression level at cell surface at 10 uM incubated for 2 hrs by in-cell western analysis (reference value: 39.6 +/- 0.7%). The class given is cell-based. More on the design: scale not given: the % may be the effect or the level left.

Experiment [2] shares this test system. In words: Inhibition of C-terminal His tagged purified recombinant PCSK9 D374Y mutant (unknown origin) and LDLR protein-protein interaction expressed in human HepG2 cells assessed as LDL-C uptake level at 10 uM incubated for 2 hrs by fluorescent LDL uptake cell-based assay (42.1 +/- 1.6%). Further details: scale not given: the % may be the effect or the level left.

Experiment [3] has the same test system. Kind of experiment: Potency index, ratio of T9 to test compound for inhibition of C-terminal His tagged purified recombinant PCSK9 D374Y mutant (unknown origin) and LDLR protein-protein interaction expressed in human HepG2 cells assessed as LDL-C uptake level at 10 uM incubated for 2 hrs by fluorescent LDL uptake cell-based assay.
Experiment [4] concerns the target PCSK9/LDLR (Homo sapiens, UniProt Q8NBP7, D374Y). Kind of experiment: (§1) Binding affinity to C-terminal His tagged purified recombinant PCSK9 D374Y mutant (unknown origin) expressed in HEK293 cells assessed as dose dependent reduction in PCSK9/LDLR protein-protein interaction at 0.1 uM to 1 mM uM by chemiluminescent assay.
For experiment [5], the system named is PCSK9/LDLR (Homo sapiens), Q8NBP7+P01130 [D374Y]. Described as §1.
Experiment [6] has the same test system. In words: Inhibition of C-terminal His tagged purified recombinant PCSK9 D374Y mutant (unknown origin) and LDLR protein-protein interaction expressed in human HepG2 cells assessed as LDLR protein expression level at cell surface at 10 uM incubated for 2 hrs by in-cell western analysis relative to T9 peptide. The class given is cell-based. More on the design: scale not given: the % may be the effect or the level left.

Experiment [7] has the same test system. In words: Binding affinity to C-terminal His tagged purified recombinant PCSK9 D374Y mutant (unknown origin) expressed in HEK293 cells assessed as reduction in PCSK9/LDLR protein-protein interaction at 100 uM by chemiluminescent assay.

Consider two compounds from ChEMBL document CHEMBL4339215, “Inhibition of PCSK9D374Y/LDLR Protein-Protein Interaction by Computationally Designed T9 Lupin Peptide” (ACS Med Chem Lett, 2019).

Calls of active or inactive are those of the source. No cut-off for these calls is given here.

Chain of PCSK9/LDLR (Q8NBP7 whole entry D374Y, looked up): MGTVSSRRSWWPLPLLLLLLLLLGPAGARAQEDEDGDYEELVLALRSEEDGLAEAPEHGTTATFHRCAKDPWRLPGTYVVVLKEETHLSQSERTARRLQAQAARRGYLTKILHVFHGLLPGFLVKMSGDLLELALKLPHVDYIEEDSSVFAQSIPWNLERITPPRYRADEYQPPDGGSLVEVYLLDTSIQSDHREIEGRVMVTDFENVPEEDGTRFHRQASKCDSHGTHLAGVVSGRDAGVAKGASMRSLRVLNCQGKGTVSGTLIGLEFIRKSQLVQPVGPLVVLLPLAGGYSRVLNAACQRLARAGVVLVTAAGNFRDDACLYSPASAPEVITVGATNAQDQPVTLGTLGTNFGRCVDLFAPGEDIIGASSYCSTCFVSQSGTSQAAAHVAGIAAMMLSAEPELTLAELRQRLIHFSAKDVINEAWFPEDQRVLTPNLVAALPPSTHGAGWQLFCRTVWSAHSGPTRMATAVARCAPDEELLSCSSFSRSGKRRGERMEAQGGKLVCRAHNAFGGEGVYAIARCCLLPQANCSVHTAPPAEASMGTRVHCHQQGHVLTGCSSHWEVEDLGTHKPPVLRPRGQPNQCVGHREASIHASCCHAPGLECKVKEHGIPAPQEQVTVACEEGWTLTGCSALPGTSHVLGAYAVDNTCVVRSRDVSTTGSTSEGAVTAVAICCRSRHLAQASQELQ

The term IC50 denotes the concentration at which inhibition is half-maximal. For orientation: inhibition means the relative decrease from the control value, in per cent. Regarding H-GQRQWKQAEGVMVR-OH, the results for the Activity in experiment [1], in experiment [2] and in experiment [6] were 83.8%, 102% and 12.7%, respectively. The Ratio in experiment [3] came out at 35. Also, the IC50 in experiment [4] is 148 µM. In addition, the inhibition result in experiment [5] was “Dose-dependent effect”.

Turning to `CC[C@H](C)[C@H](NC(=O)[C@@H](NC(=O)CNC(=O)[C@H](CCC(=O)O)NC(=O)[C@H](C)NC(=O)[C@H](CCC(N)=O)NC(=O)[C@H](Cc1cnc[nH]1)NC(=O)[C@H](CO)NC(=O)[C@H](CCC(N)=O)NC(=O)[C@H](CCC(=O)O)NC(=O)[C@H](CCC(N)=O)NC(=O)CN)C(C)C)C(=O)N[C@H](C(=O)N[C@@H](CCCNC(=N)N)C(=O)O)C(C)C`, the inhibition in experiment [7] turned out to be 31.3%. The inhibition entry in experiment [5] was “inactive”.
